# Measured values published in patent US9096547B2, “Sodium salt of 6-fluoro-3-hydroxy-2-pyrazine carboxamide” (Toyama Chemical Co., Ltd., priority 2010, dated 2015).
# Assays:
# [1] = Stability (1): appearance after standing at 60° C. for 1 month; format: physicochemical; details: stand still at 60° C. for 1 month
# Procedure: The preparations of Examples 1, 7, 9, 10, 11, 12, 25, 28 and 29 were allowed to stand still at 60° C. for 1 month and then their appearance was observed.
# [2] = Stability (2): appearance after irradiation by a D65 lamp; format: physicochemical; details: irradiated (1,200,000 lx·hr) by a D65 lamp
# Excerpt: The preparations of Examples 1, 10, 15, 16, 22 and Comparative Example 1 were irradiated (1,200,000 lx·hr) by a D65 lamp (FLR20S-D-EDL-D65/M) and then their appearance was observed.
smiles,measurement,setting,value
"NC(=O)c1nc(F)cnc1O.[Na] [Example 1, sodium salt of 6-fluoro-3-hydroxy-2-pyrazinecarboxamide]",appearance change,[1],appearance change was not observed
same,appearance change,[2],appearance change was not observed
